Columns and labels:
Assay in all cases: Test A pre/postemergence
Format in all cases: in vivo
[1] = tested on: giant foxtail (Setaria faberi)
Protocol: (§1) Seeds of barnyardgrass (Echinochloa crus-galli), crabgrass (Digitaria sanguinalis), giant foxtail (Setaria faberi), morningglory (Ipomoea spp.), redroot pigweed (Amaranthus retroflexus) and velvetleaf (Abutilon theophrasti) were planted into a blend of loam soil and sand and treated preemergence with a directed soil spray using test chemicals formulated in a non-phytotoxic solvent mixture which included a surfactant. At the same time these species were also treated with postemergence applications of test chemicals formulated in the same manner.
(§2) Plants ranged in height from 2 to 10 cm and were in the 1- to 2-leaf stage for the postemergence treatment. Treated plants and untreated controls were maintained in a greenhouse for approximately ten days, after which time all treated plants were compared to untreated controls and visually evaluated for injury. Plant response ratings, summarized in Table A, are based on a 0 to 100 scale where 0 is no effect and 100 is complete control. A dash (-) response means no test results.

[2] = tested on: crabgrass (Digitaria sanguinalis)
Protocol: as §1, §2

[3] = tested on: velvetleaf (Abutilon theophrasti)
Protocol: as §1, §2

[4] = tested on: barnyardgrass (Echinochloa crus-galli)
Protocol: as §1, §2

[5] = tested on: redroot pigweed (Amaranthus retroflexus)
Protocol: as §1, §2

[6] = tested on: morningglory (Ipomoea spp.)
Protocol: as §1, §2

[7] = Postemergence, 125 g ai/ha, 0 to 100 scale (0 no effect, 100 complete control)
[8] = Postemergence, 500 g ai/ha, 0 to 100 scale (0 no effect, 100 complete control)
[9] = Preemergence, 125 g ai/ha, 0 to 100 scale where 0 is no effect and 100 is complete control, approximately ten days
[10] = Preemergence, 500 g ai/ha, 0 to 100 scale where 0 is no effect and 100 is complete control, approximately ten days

CCOC(=O)COc1nc(C2CC2)nc(N)c1Cl [Compound 115]
Plant response rating, Foxtail, Giant [1, 7]: 0
Plant response rating, Foxtail, Giant [1, 8]: 0
Plant response rating, Foxtail, Giant [1, 9]: 0
Plant response rating, Foxtail, Giant [1, 10]: 0
Plant response rating, Crabgrass [2, 7]: 0
Plant response rating, Crabgrass [2, 8]: 0
Plant response rating, Crabgrass [2, 9]: 0
Plant response rating, Crabgrass [2, 10]: 10
Plant response rating, Velvetleaf [3, 7]: 30
Plant response rating, Velvetleaf [3, 8]: 40
Plant response rating, Velvetleaf [3, 9]: 5
Plant response rating, Velvetleaf [3, 10]: 10
Plant response rating, Barnyardgrass [4, 7]: 0
Plant response rating, Barnyardgrass [4, 8]: 0
Plant response rating, Barnyardgrass [4, 9]: 0
Plant response rating, Barnyardgrass [4, 10]: 20
Plant response rating, Pigweed [5, 7]: 10
Plant response rating, Pigweed [5, 8]: 45
Plant response rating, Pigweed [5, 9]: 30
Plant response rating, Pigweed [5, 10]: 40
Plant response rating, Morningglory [6, 7]: 35
Plant response rating, Morningglory [6, 8]: 60
Plant response rating, Morningglory [6, 9]: 25
Plant response rating, Morningglory [6, 10]: 35

Nc1nc(C2CC2)nc(OCC(=O)[O-])c1Cl.[Na+] [Compound 116]
Plant response rating, Foxtail, Giant [1, 7]: 0
Plant response rating, Foxtail, Giant [1, 8]: 0
Plant response rating, Foxtail, Giant [1, 9]: 0
Plant response rating, Foxtail, Giant [1, 10]: 0
Plant response rating, Crabgrass [2, 7]: 0
Plant response rating, Crabgrass [2, 8]: 0
Plant response rating, Crabgrass [2, 9]: 0
Plant response rating, Crabgrass [2, 10]: 10
Plant response rating, Velvetleaf [3, 7]: 15
Plant response rating, Velvetleaf [3, 8]: 40
Plant response rating, Velvetleaf [3, 9]: 0
Plant response rating, Velvetleaf [3, 10]: 15
Plant response rating, Barnyardgrass [4, 7]: 0
Plant response rating, Barnyardgrass [4, 8]: 0
Plant response rating, Barnyardgrass [4, 9]: 10
Plant response rating, Barnyardgrass [4, 10]: 20
Plant response rating, Pigweed [5, 7]: 20
Plant response rating, Pigweed [5, 8]: 35
Plant response rating, Pigweed [5, 9]: 30
Plant response rating, Pigweed [5, 10]: 50
Plant response rating, Morningglory [6, 7]: 40
Plant response rating, Morningglory [6, 8]: 60
Plant response rating, Morningglory [6, 9]: 30
Plant response rating, Morningglory [6, 10]: 50

COC(=O)COc1nc(-c2ccc(Cl)cc2)nc(N)c1Cl [Compound 119]
Plant response rating, Foxtail, Giant [1, 7]: 0
Plant response rating, Foxtail, Giant [1, 8]: 0
Plant response rating, Foxtail, Giant [1, 9]: 0
Plant response rating, Foxtail, Giant [1, 10]: 0
Plant response rating, Crabgrass [2, 7]: 0
Plant response rating, Crabgrass [2, 8]: 0
Plant response rating, Crabgrass [2, 9]: 0
Plant response rating, Crabgrass [2, 10]: 0
Plant response rating, Velvetleaf [3, 7]: 0
Plant response rating, Velvetleaf [3, 8]: 10
Plant response rating, Velvetleaf [3, 9]: 0
Plant response rating, Velvetleaf [3, 10]: 0
Plant response rating, Barnyardgrass [4, 7]: 0
Plant response rating, Barnyardgrass [4, 8]: 5
Plant response rating, Barnyardgrass [4, 9]: 0
Plant response rating, Barnyardgrass [4, 10]: 10
Plant response rating, Pigweed [5, 7]: 25
Plant response rating, Pigweed [5, 8]: 45
Plant response rating, Pigweed [5, 9]: 0
Plant response rating, Pigweed [5, 10]: 0
Plant response rating, Morningglory [6, 7]: 40
Plant response rating, Morningglory [6, 8]: 35
Plant response rating, Morningglory [6, 9]: 0
Plant response rating, Morningglory [6, 10]: 0

CCOC(=O)Cc1nc(-c2ccc(Cl)cc2)nc(N)c1Cl [Compound 120]
Plant response rating, Foxtail, Giant [1, 7]: 0
Plant response rating, Foxtail, Giant [1, 8]: 0
Plant response rating, Foxtail, Giant [1, 9]: 0
Plant response rating, Foxtail, Giant [1, 10]: 0
Plant response rating, Crabgrass [2, 7]: 0
Plant response rating, Crabgrass [2, 8]: 5
Plant response rating, Crabgrass [2, 9]: 0
Plant response rating, Crabgrass [2, 10]: 0
Plant response rating, Velvetleaf [3, 7]: 50
Plant response rating, Velvetleaf [3, 8]: 65
Plant response rating, Velvetleaf [3, 9]: 0
Plant response rating, Velvetleaf [3, 10]: 0
Plant response rating, Barnyardgrass [4, 7]: 10
Plant response rating, Barnyardgrass [4, 8]: 40
Plant response rating, Barnyardgrass [4, 9]: 5
Plant response rating, Barnyardgrass [4, 10]: 15
Plant response rating, Pigweed [5, 7]: 20
Plant response rating, Pigweed [5, 8]: 35
Plant response rating, Pigweed [5, 9]: 0
Plant response rating, Pigweed [5, 10]: 0
Plant response rating, Morningglory [6, 7]: 25
Plant response rating, Morningglory [6, 8]: 55
Plant response rating, Morningglory [6, 9]: 0
Plant response rating, Morningglory [6, 10]: 0

COC(=O)c1nc(-c2ccc(SC)cc2)nc(N)c1Cl [Compound 121]
Plant response rating, Foxtail, Giant [1, 7]: 0
Plant response rating, Foxtail, Giant [1, 8]: 0
Plant response rating, Foxtail, Giant [1, 9]: 0
Plant response rating, Foxtail, Giant [1, 10]: 0
Plant response rating, Crabgrass [2, 7]: 0
Plant response rating, Crabgrass [2, 8]: 0
Plant response rating, Crabgrass [2, 9]: 0
Plant response rating, Crabgrass [2, 10]: 0
Plant response rating, Velvetleaf [3, 7]: 0
Plant response rating, Velvetleaf [3, 8]: 0
Plant response rating, Velvetleaf [3, 9]: 0
Plant response rating, Velvetleaf [3, 10]: 0
Plant response rating, Barnyardgrass [4, 7]: 0
Plant response rating, Barnyardgrass [4, 8]: 5
Plant response rating, Barnyardgrass [4, 9]: 0
Plant response rating, Barnyardgrass [4, 10]: 0
Plant response rating, Pigweed [5, 7]: 0
Plant response rating, Pigweed [5, 8]: 0
Plant response rating, Pigweed [5, 9]: 0
Plant response rating, Pigweed [5, 10]: 0
Plant response rating, Morningglory [6, 7]: 0
Plant response rating, Morningglory [6, 8]: 10
Plant response rating, Morningglory [6, 9]: 0
Plant response rating, Morningglory [6, 10]: 0

COC(=O)c1nc(-c2ccc(S(C)(=O)=O)cc2)nc(N)c1Cl [Compound 122]
Plant response rating, Foxtail, Giant [1, 7]: 0
Plant response rating, Foxtail, Giant [1, 8]: 0
Plant response rating, Foxtail, Giant [1, 9]: 0
Plant response rating, Foxtail, Giant [1, 10]: 0
Plant response rating, Crabgrass [2, 7]: 0
Plant response rating, Crabgrass [2, 8]: 0
Plant response rating, Crabgrass [2, 9]: 0
Plant response rating, Crabgrass [2, 10]: 0
Plant response rating, Velvetleaf [3, 7]: 0
Plant response rating, Velvetleaf [3, 8]: 0
Plant response rating, Velvetleaf [3, 9]: 0
Plant response rating, Velvetleaf [3, 10]: 0
Plant response rating, Barnyardgrass [4, 7]: 0
Plant response rating, Barnyardgrass [4, 8]: 0
Plant response rating, Barnyardgrass [4, 9]: 0
Plant response rating, Barnyardgrass [4, 10]: 0
Plant response rating, Pigweed [5, 7]: 0
Plant response rating, Pigweed [5, 8]: 0
Plant response rating, Pigweed [5, 9]: 0
Plant response rating, Pigweed [5, 10]: 0
Plant response rating, Morningglory [6, 7]: 0
Plant response rating, Morningglory [6, 8]: 0
Plant response rating, Morningglory [6, 9]: 0
Plant response rating, Morningglory [6, 10]: 0

COC(=O)c1nc(-c2ccc([S+](C)[O-])cc2)nc(N)c1Cl (stereo not drawn) [Compound 123]
Plant response rating, Foxtail, Giant [1, 7]: 0
Plant response rating, Foxtail, Giant [1, 8]: 10
Plant response rating, Foxtail, Giant [1, 9]: 0
Plant response rating, Foxtail, Giant [1, 10]: 0
Plant response rating, Crabgrass [2, 7]: 0
Plant response rating, Crabgrass [2, 8]: 0
Plant response rating, Crabgrass [2, 9]: 0
Plant response rating, Crabgrass [2, 10]: 0
Plant response rating, Velvetleaf [3, 7]: 0
Plant response rating, Velvetleaf [3, 8]: 0
Plant response rating, Velvetleaf [3, 9]: 0
Plant response rating, Velvetleaf [3, 10]: 0
Plant response rating, Barnyardgrass [4, 7]: 0
Plant response rating, Barnyardgrass [4, 8]: 10
Plant response rating, Barnyardgrass [4, 9]: 0
Plant response rating, Barnyardgrass [4, 10]: 0
Plant response rating, Pigweed [5, 7]: 0
Plant response rating, Pigweed [5, 8]: 0
Plant response rating, Pigweed [5, 9]: 0
Plant response rating, Pigweed [5, 10]: 0
Plant response rating, Morningglory [6, 7]: 0
Plant response rating, Morningglory [6, 8]: 20
Plant response rating, Morningglory [6, 9]: 0
Plant response rating, Morningglory [6, 10]: 0

Source: patent US8802597B2, “Herbicidal pyrimidines” (E I du Pont de Nemours and Company, priority 2003, dated 2014)
